For 87 molecules, melting point results are on record in a melting point compilation (Tetko et al.; mined from patent text by program, amines drawn as free bases though some values may be those of a salt).

As usually defined, the melting point is the temperature, or range, at which the solid turns liquid.

For the molecule `CC(c1ccc(I)cc1)C(O)(Cn1cncn1)c1ccc(F)cc1F` (configuration not stated), the melting point was in the range of 169 to 171 °C.

Consider `COc1ccc(Br)c(C=O)c1OC(C)=O`, for which the melting point fell in the range of 119 to 120 °C.

On to `CNS(=O)(=O)c1ccc2c(c1)S(=O)(=O)N=C1CCCN12`, for which the melting point was 244 to 247 °C.

Molecule `Cc1cccc(C(=O)c2ccc(O)cc2)c1C` showed a melting point of 155 to 158 °C.

As for `COC(=O)CNC(=O)c1cc2c(C(=O)CN(Cc3ccccc3)C(C)(C)C)ccc(OCc3ccccc3)c2[nH]1`, the melting point is 152 °C.

As to `C#CCn1c(-c2ccccc2)nc(O)c(CC)c1=O`, the melting point was 159 to 160 °C.

In turn, `CCOC(=O)C1(Cc2ccc(OC)c(OC)c2)C(=O)NCC1c1ccc(OC)c(OC)c1` (configuration not stated) yielded a melting point of 146 to 149 °C.

The molecule `O=C(NCCN1CCNCC1)c1cccc(C=CC(=O)N2CCc3c([nH]c4ccccc34)C2c2ccc3c(c2)OCO3)c1` (configuration not stated) registered a melting point of 138 to 140 °C.

For `Clc1cnc2c(C(Cl)(Cl)Cl)cc(Cl)cc2c1`, the melting point turned out to be 198 °C.

Molecule `COc1ccc(-c2nc(-c3ccc(Br)cc3)sc2-c2ccc(OC)cc2)cc1` showed a melting point of 155 to 157 °C.

Molecule `OCC1OC(n2cnc3c(NCC(c4ccccc4)c4ccccc4)nc(Cl)nc32)C(O)C1O` (configuration not stated) came in with a melting point of 120 to 123 °C.

`CCOc1ccc(NC=C(C#N)C(=O)Nc2cc(OC)c(Cl)cc2Cl)cc1F` showed a melting point of 245 to 247 °C.

The molecule `CCN(CC)CCN1C(=O)c2cc(OC)c3[nH]c4ccc(O)cc4c3c2C1=O` registered a melting point of 226 to 228 °C.

The molecule `Cc1nc(Nc2ccccc2)sc1C(=O)c1ccc(Cl)c([N+](=O)[O-])c1` registered a melting point of 162 to 165 °C.

The molecule `CC(C)(C)OC(=O)N1CCN2C(=O)N(c3cc(Cl)cc(Cl)c3)C(=O)C2C1` (configuration not stated) gave a melting point of 60.2 °C.

Turning to `CCN1CCN(c2cc(-c3ccc(O)cc3)c3c(n2)CCCCCC3)CC1`, the melting point was 250 to 253 °C.

With `CCc1c2c(nc3cc(F)c(F)cc13)-c1cc3c(c(=O)n1C2)COC(=O)CC3(O)CC` (configuration not stated), the melting point was > 275 °C.

The molecule `O=C(NC12CC3CC(CC(C3)C1)C2)c1cc(O)c(O)cc1Cl` registered a melting point of 225 to 230 °C.

`O=C1CCc2c(-c3ccc(F)cc3)sc(-c3ccncc3)c21` had a melting point of 155 to 157 °C.

Regarding `O=C(NC(=O)c1ccccc1F)Nc1ccc(F)c(C(F)(F)F)c1Cl`, the melting point stood at 173 °C.

For the molecule `Cc1cc(OCc2ccccc2)ccc1C(=O)O`, the melting point was 126 to 129 °C.

Turning to `COc1ccc2nccc(NC(=O)N3CCN(CCc4ccc5c(c4)NC(=O)CS5)CC3)c2n1`, the melting point lay in the range of 248 to 250 °C.

`CCc1cccc2c3c([nH]c12)C(CC)(CC(C)=O)OCC3` (configuration not stated) showed a melting point of 154 to 155 °C.

`COc1ccc(CN2C(=O)CN(Cc3ccc(C(=O)O)cc3)S2(=O)=O)c(OC)c1` gave a melting point of 175 to 177 °C.

Molecule `CN(C(=O)CNc1nc(-c2ccccc2)ncc1N)c1ccccc1` returned a melting point of 183 to 184 °C.

Turning to `CCOC(=O)c1ccc(C(C(N)=O)C(C)c2cc(OC)ccc2N2CCCCC2)cc1` (configuration not stated), the melting point is 131 to 132 °C.

For the molecule `CC(=O)NC1Cc2ccc(S(=O)(=O)Cl)cc2C1` (configuration not stated), the melting point was 237 to 239 °C.

For `O=S1CCc2n[nH]c(CCCN3CCN(c4ccc(F)cc4)CC3)c2C1` (configuration not stated), the melting point fell in the range of 140 to 142 °C.

`Nc1nc(N)nc(N2CC=CCC2)n1`: the melting point was in the range of 200 to 202 °C.

For `CC(=O)Nc1ccc(CN(C)C)c(O)c1`, the melting point fell in the range of 133 to 135 °C.

`COc1ccc2c(-c3c(F)cccc3F)noc2c1Cl` showed a melting point of 175 to 179 °C.

For `COC(=O)CSCNC(=O)c1ccccc1`, the melting point fell in the range of 65 to 68 °C.

As to `CC(C)(C)c1ccc(N2CCOCC2)c(NC(=O)C(F)(F)F)c1`, the melting point was in the range of 89 to 90 °C.

`COc1cc2ncnc(Nc3cccc(C)c3)c2c(N)c1OC` displayed a melting point of 181 to 182 °C.

In the case of `C=C1CCCN(Cc2ccc(OC)cc2)C1=O`, the melting point was 145 to 155 °C.

`Cn1nc(-c2ccc(Cl)cc2)c2cc3ccccc3cc21` gave a melting point of 157 to 159 °C.

On to `O=C(NC(=O)c1c(F)cccc1F)Nc1ccc(OC(F)(F)C(F)F)c(C(F)(F)F)c1`, for which the melting point is 182 to 185 °C.

Consider `CC1(OCc2ccccc2F)COC(C(C)(C)C)OC1` (configuration not stated), for which the melting point lay in the range of 50 to 52 °C.

In turn, `C#CCNC(=O)c1c(I)cccc1[Si](C)(C)C` had a melting point of 109 to 111 °C.

`O=C(O)c1cc(N=C=S)cc(N=C=S)c1` gave a melting point of 125 to 127 °C.

`O=C(O)CCCn1nc(-c2c(-c3ccccc3)nn3ccccc23)ccc1=O` showed a melting point of 240 °C.

`O=C(Nc1nc(C(Cl)(Cl)Cl)ns1)c1ccc([N+](=O)[O-])cc1` had a melting point of 214 °C.

`O=C(O)CN1C(=O)C(=Cc2ccc([N+](=O)[O-])cc2)SC1=S` gave a melting point of 274 to 277 °C.

The molecule `CCCCCCCCCCCCCc1cc(C(=O)OCC)c[nH]1` showed a melting point of 59.5 to 60.5 °C.

`CN(C)C=NC(=O)c1ccc(C(=O)N2Cc3cccn3Cc3ccccc32)cc1` registered a melting point of 232 to 234 °C.

With `Cc1nc(NC(=O)c2cnn3c(C(F)(F)F)cc(-c4ccc(C(F)(F)F)cc4)nc23)sc1S(=O)(=O)NC(C)(CO)CO`, the melting point worked out at 250 °C.

On to `CCn1c(C)c(C(=O)c2ccccc2C(=O)O)c2ccccc21`, for which the melting point is 184 to 185 °C.

In the case of `CCCCCn1c2ccc(C(=S)N3CCCCC3)cc2c2ccc(OC)cc21`, the melting point lay in the range of 116 to 118 °C.

For `CC(C)n1nc(-c2sc(NC(=O)c3c(Cl)cccc3Cl)nc2-c2ccccc2)ccc1=O`, the melting point lay within 248 to 249 °C.

On to `Cc1cccc(Oc2c(-c3ccc(S(C)(=O)=O)cc3)oc(C)cc2=O)c1`, for which the melting point was 162 °C.

Molecule `CCCOC(=O)C(Br)=CC1C(C(=O)OC(C#N)c2cccc(Oc3ccccc3)c2)C1(C)C` (configuration not stated) yielded a melting point of 64 °C.

Consider `CCc1cccc2c1OC(C(F)(F)F)C(C(=O)O)=C2` (configuration not stated), for which the melting point was in the range of 185 to 187 °C.

Take `CCOc1ccc(C(=O)NCCN2CCC(Oc3ccc(Cl)c(Cl)c3)CC2)cc1`: the melting point lay in the range of 118 to 120 °C.

In turn, `O=c1cnn(-c2ccc(Cl)c(C(c3ccc(Cl)cc3)c3nc(-c4ccccc4)c(CNC(=S)Nc4ccccc4)s3)c2Cl)c(=O)[nH]1` (configuration not stated) gave a melting point of 159 °C.

With `C=CC(O)c1[nH]c(=O)c2c(ccc3nc(Nc4c(Cl)cccc4Cl)n(C)c32)c1C` (configuration not stated), the melting point lay within 235 to 236 °C.

Molecule `COc1cc2c(cc1Cl)CCNC[C@H]2c1ccccc1` displayed a melting point of 81 to 82 °C.

`CC(C)c1nc(COC2=CCCCC2)n(C)c1Sc1cc(Cl)cc(Cl)c1`: the melting point is 69 to 71 °C.

For `CCc1nc2c(N)nc3cc(-c4cncc(CO)c4)ccc3c2n1CC(C)(C)O`, the melting point was > 250 °C.

With `N#CSCCNc1ccc(C(F)(F)F)cc1[N+](=O)[O-]`, the melting point lay within 115 to 117 °C.

As to `Nc1nc(-c2ccc(CCN3CCN(c4cccc5cc(F)ccc45)CC3)cc2)cs1`, the melting point fell in the range of 220 to 225 °C.

With `CCOc1cc(CCCOc2c(C)cc(-c3noc(C4CC4)n3)cc2C)on1`, the melting point lay within 70 to 71 °C.

On to `CC(=O)N1N=C2C(=Cc3ccccc3)CS(=O)(=O)CC2C1c1ccccc1` (configuration not stated), for which the melting point lay within 218 to 220 °C.

In turn, `COc1c(C2CCN(CCCCNC(=O)c3oc(-c4ccc(C#N)cc4)nc3CO)CC2)ccc2c1CCCC2` showed a melting point of 160 to 162 °C.

In the case of `C=C1c2ccccc2CC(=O)c2ccccc21`, the melting point was 84 to 86 °C.

Turning to `CCOC(=O)C(=Cc1cccc([N+](=O)[O-])c1)C(=O)C(Cl)(Cl)Cl`, the melting point is 106 to 107 °C.

For `CC(C)c1cc(C(=O)Nc2ccc(OCC(=O)O)cc2)oc1C(C)C`, the melting point lay in the range of 83 to 85 °C.

`CC(C)(CCCSCSCCCC(C)(C)C(=O)O)C(=O)O`: the melting point was 72 to 72.5 °C.

As for `CC(C)(C)c1cc(OCc2ccc(-c3nnn[nH]3)cc2)cc(C(C)(C)C)c1O`, the melting point was in the range of 235 to 237 °C.

Regarding `CCOC(=O)c1ccc(C#CC(O)c2cc(-c3ccccc3)cc3c2C(C)(C)CCC3(C)C)cc1` (configuration not stated), the melting point stood at 121 °C.

For `O=C1CCC(c2ccc(N=C(CCCc3ccccc3)c3ccc(O)cc3O)cc2)=NN1`, the melting point fell in the range of 274 to 280 °C.

`Cc1ccc(N(C#N)C(=O)CCCCC(=O)N(C#N)c2ccc(C)cc2C)c(C)c1` came in with a melting point of 120 to 122 °C.

On to `Cc1ncc([N+](=O)[O-])cc1C(=O)NC(=O)C(C)(C)C`, for which the melting point was in the range of 138 to 139 °C.

Molecule `COc1cc2c(cc1OC)-c1c(OC)c(OC)cc3c1C(C2)N(C)CC3` (configuration not stated) yielded a melting point of 112 to 114 °C.

As for `Cn1ccc2c(NC(=O)c3ccccc3)cccc21`, the melting point stood at 160 °C.

As to `CC1CCCCC1C(=O)Nc1ccc(-c2ncc(-c3ccc(NC(=O)C4CCCCCC4)cc3)[nH]2)cc1` (configuration not stated), the melting point is 258 to 260 °C.

The molecule `NC(=O)c1ccc(F)c2c1CC(NCCCc1c[nH]c3ccc(Cl)cc13)CO2` (configuration not stated) returned a melting point of 218 to 221 °C.

As to `O=C(NO)[C@H](CNS(=O)(=O)c1ccc(OCc2cc(Cl)cc(Cl)c2)cc1)N1CCCCC1`, the melting point was found to be 130 °C.

In turn, `CS(=O)(=O)Nc1cccc(Nc2nc(NCc3cccnc3)c3nc[nH]c3n2)c1` returned a melting point of 144 to 147 °C.

Molecule `COc1cc(O)c(C(=O)C=Cc2ccco2)c(OC)c1` returned a melting point of 98.4 °C.

Turning to `O=C(Cl)N1CCN(c2ccccc2)CC1`, the melting point was determined as 79.5 °C.

`N#CC=C1CCN(c2ccc(N3C[C@@H](Cn4cc(C#N)nn4)OC3=O)cc2F)CC1`: the melting point is 78 to 80 °C.

With `C#CCOc1ccc(C)cc1S(=O)(=O)NC(=O)Nc1nc(Cl)cc(OC)n1`, the melting point fell in the range of 202 to 204 °C.

As for `COc1ccc(C2=NN(c3ccc(C(=O)O)cc3)C(=O)[C@H]3CC=CC[C@@H]23)cc1Cl` (relative stereo), the melting point lay in the range of 222 to 224 °C.

The molecule `c1ccc(C(c2ccccc2)N2CCCC2)cc1` gave a melting point of 69 to 72 °C.

For `COC(=O)c1ccc(/C=C/c2nc(-c3ccco3)oc2C)cc1`, the melting point was 142 to 143 °C.

On to `CC1CC(=O)NN=C1c1ccc(NC(=O)OC2CCC2)cc1` (configuration not stated), for which the melting point was 245 to 246 °C.

With `NCC1Cc2cccc(-c3ccccc3C(F)(F)F)c2O1` (configuration not stated), the melting point fell in the range of 109 to 111 °C.
